Measured values as given in US20040265847A1, “Method for treating Alzheimer's disease” (priority 1991, published 2004).

Key:
[1] = molecular target: T1, partially purified human brain APP (Homo sapiens, UniProt P05067); assay: partially purified brain APP binding to heparin-Sepharose, NaCl gradient elution
T1 construct: from tissue; host or cells: human brain membrane extract
Experimental: (§1) APP binding to heparin-Sepharose was also studied using partially purified APP preparations derived from human brain membranes (according to the method of Moir et al, 1992) or from human serum. Washed brain membrane extract or human serum was adjusted to a NaCl concentration of 350 mM and applied to a Q-Sepharose column (5 cm×5 cm), washed with 350 mM NaCl, 50 mM Tris-Hcl, pH 7.4 (250 ml [×2 for brain membrane extract]) and eluted with 1 M NaCl 50 mM Tris-HCl, pH 7.4 (200 ml at 5 ml/min). This procedure causes an 80-fold enrichment of APP in the peak protein fractions, which are then pooled (Moir et al, 1992). The eluate (20 ml) was desalted into 25 mM Tris, pH 7.4 (30 ml) using a G25 Sephadex column (2.6 cm×40 cm). 15 ml of the product was adjusted to 50 μM Zn^2+ with 2 mM ZnCl2, 50 mM Tris-Hcl, pH 7.4 and the other 15 ml was adjusted to the same volume with 50 mM Tris-HCl, pH 7.4. 10 ml of the deslated Q-Sepharose eluate, containing 6.7 mg protein, was applied to heparin-Sepharose (1.6 cm×5 cm) at 0.35 ml/min, washed with 100 ml of loading buffer, and eluted by a 0 to 1500 mM NaCl gradient (±50 μM Zn^2+) in 52.5 ml at a flow rate of 0.35 ml/min. Fractions (1 ml) representing 20 mM NaCl increments were collected and 30 μl samples of each fraction were assayed for APP by Western blot with mAb 22C11 according to the method in Bush et al. (1990), modified by using PVDF membranes and by reducing the blocking time to 1 hour. The immunoreactive staining of the 130 kDa APP species seen on the blots was quantified by computer-assisted image capture reflectance densitometry (Bush et al., 1992). The 130 kDa reflectance signals on the blots were expressed as the ratio of the signal generated in one sample lane related to the 130 kDa APP reflectance reading of a sample of starting material present on every individual filter as an internal standard.

[2] = tested on: human brain 130/110 kDa APP; assay: ^65Zn binding to human brain 130/110 kDa APP (time course, competition, Scatchard)
Text: FIG. 4 is a graphical representation showing a time course analysis of ^65Zn binding to human brain 130/110 kDa APP. Amyloid protein precursor (APP) was purified according to the method in Moir et al. (1992). The preparation of purified 130 and 110 kDa APP was derived from human brain membrane extracts and contained the full-length precursor with carboxyl terminus intact but lacked the 17 residue signal peptide. The 130 and 110 kDa proteins were apparent in equal ratios on silver staining following polyacrylamide gel electrophoresis and were the only bands visible. The identity of these two proteins was confirmed by Western blots with monoclonal antibody 22C11 (which recognises an amino terminal epitope on APP), and by amino terminal sequencing. The protein concentration of the APP preparation was determined by amino acid analysis. Aliquots of APP (90 ng, =1.1 pmole, assuming the average amino acid formula weight of APP is =80 kDa) were incubated at 20° C. for the times indicated. Incubations (50 μl) were performed in 150 mM NaCl, 50 mM Tris-Hcl, pH 7.4 in the presence of 10^6 cpm of ^65Zn (175 nM). The incubation solution was then applied to a 1.1 ml bed volume Sephadex G25 (Pharmacia, Uppsala, Sweden) column pre-equilibrated with 150 mM NaCl, 50 mM Tris-HCl, pH 7.4 and allowed to settle before being desalted with 645 μl of the Equilibration buffer. […] The desalted protein was collected directly into counting tubes containing 10 ml aqueous counting scintillant. Less than two minutes was required to complete the desalting. The amount of ^65Zn bound to desalted APP was determined by counting the collected sample in a beta-counter set to the broadest channel. Counting was determined to be 51% efficient. The values shown are means±SD of n≧3 readings.
FIG. 5 is a graphical representation showing a competition analysis of ^65Zn binding to human brain 130/110 kDa APP. Aliquots of APP were incubated for 30 minutes with ^65Zn as in FIG. 4. The binding of the labelled Zn^2+ to APP was subjected to competition with unlabelled Zn^2+ in the form of the chloride salt. Data shown indicate the competition curves generated at pH 6.4 and 7.4. The binding of Zn^2+ to APP deteriorated at the lower pH (=45% of Bmax, pH 7.4). The values are means±SEM of n≧3 readings. The curves illustrated are typical of three experiments.
FIG. 6 is a graphical representation depicting a Scatchard analysis of ^65Zn binding to human brain 130/110 kDa APP.
Binding analysis was performed as follows: Aliquots of APP (90 ng, =1.1 pmole, assuming the average amino acid formula mass of APP is =80 kDa) were incubated at 20° C. Incubations (50 μl) were performed in 150 mM NaCl, 50 mM Tris-HCl, pH 7.4 in the presence of 10^6 CPM of ^65Zn (175 nM). The incubation solution was then applied to a 1.1 ml bed volume Sephadex G25 (Pharmacia, Uppsala, Sweden) column pre-equilibrated with 150 mM NaCl, 50 mM Tris-HCl, pH 7.4 and allowed to settle before being desalted with 645 μl of the equilibration buffer. […] The deslated protein was collected directly into counting tubes containing 10 ml aqueous counting scintillant (ACSII, Amersham). Less than two minutes was required to complete the desalting. The amount of ^65Zn bound to desalted APP was determined by counting the collected sample in a beta-counter set to the broadest channel. Counting was determined to be 51% efficient. The binding of the labelled Zn^2+ to APP was subjected to competition with unlabelled Zn^2+ and other metal chloride salts.

[3] = molecular target: T2, partially purified human serum APP (Homo sapiens, UniProt P05067); assay: partially purified serum APP binding to heparin-Sepharose
T2 construct: from tissue; host or cells: human serum
T2 sequence (P05067 18-687 limits assumed): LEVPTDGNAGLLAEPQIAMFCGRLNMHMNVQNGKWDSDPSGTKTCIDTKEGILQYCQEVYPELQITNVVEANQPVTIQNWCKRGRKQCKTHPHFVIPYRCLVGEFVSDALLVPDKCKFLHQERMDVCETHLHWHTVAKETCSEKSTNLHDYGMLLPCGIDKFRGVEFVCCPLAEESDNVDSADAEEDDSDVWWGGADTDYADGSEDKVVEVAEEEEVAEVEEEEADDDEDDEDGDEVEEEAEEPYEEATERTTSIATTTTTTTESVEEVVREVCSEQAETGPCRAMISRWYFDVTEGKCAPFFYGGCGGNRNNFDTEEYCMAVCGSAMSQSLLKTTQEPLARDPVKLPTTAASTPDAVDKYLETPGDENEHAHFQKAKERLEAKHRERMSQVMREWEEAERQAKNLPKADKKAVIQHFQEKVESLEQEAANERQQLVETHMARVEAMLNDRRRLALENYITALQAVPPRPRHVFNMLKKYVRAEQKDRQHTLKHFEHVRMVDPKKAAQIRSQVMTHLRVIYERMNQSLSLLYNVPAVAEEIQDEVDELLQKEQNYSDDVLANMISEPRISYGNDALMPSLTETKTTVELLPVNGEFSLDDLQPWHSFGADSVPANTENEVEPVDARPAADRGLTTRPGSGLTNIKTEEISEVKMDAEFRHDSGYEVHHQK
Experimental: 40-60 ml of whole blood was allowed to clot for 3 hours in plain tubes at 20° C. The clotted blood was then incubated for 16 hours at 4° C., whereupon it was centrifuged at 1500 g for 15 minutes and the supernatant removed. The serum was further centrifuged at 1500 g for 15 minutes and the cell-free supernatant removed.
as §1, with “Fractions (1 ml) representing 20 mM NaCl increments were collected and 30 μl samples of each fraction were assayed for APP by Western blot with mAb 22C11 according to the method in Bush et al. (1990), modified by using PVDF membranes and by reducing the blocking time to 1 hour.” left out

T1 sequence (P05067 18-770): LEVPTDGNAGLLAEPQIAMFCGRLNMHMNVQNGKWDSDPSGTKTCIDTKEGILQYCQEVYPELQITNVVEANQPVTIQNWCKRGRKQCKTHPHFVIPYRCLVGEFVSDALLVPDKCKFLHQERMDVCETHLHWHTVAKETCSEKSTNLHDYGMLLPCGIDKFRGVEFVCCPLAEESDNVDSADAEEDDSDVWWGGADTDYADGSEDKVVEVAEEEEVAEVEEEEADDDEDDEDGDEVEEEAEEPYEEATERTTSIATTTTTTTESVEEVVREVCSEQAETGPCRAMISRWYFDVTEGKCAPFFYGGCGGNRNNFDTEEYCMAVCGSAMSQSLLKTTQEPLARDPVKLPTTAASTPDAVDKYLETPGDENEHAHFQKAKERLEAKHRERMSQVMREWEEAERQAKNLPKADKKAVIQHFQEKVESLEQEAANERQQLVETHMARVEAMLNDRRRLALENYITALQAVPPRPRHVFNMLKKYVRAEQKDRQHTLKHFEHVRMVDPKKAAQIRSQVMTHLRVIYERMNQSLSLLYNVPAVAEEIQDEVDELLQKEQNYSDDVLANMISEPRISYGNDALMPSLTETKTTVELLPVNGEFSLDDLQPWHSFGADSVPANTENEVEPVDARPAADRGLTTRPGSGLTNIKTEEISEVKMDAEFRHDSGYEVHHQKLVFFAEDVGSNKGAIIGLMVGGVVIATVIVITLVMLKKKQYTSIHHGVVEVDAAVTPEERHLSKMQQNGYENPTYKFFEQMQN

[Cl-].[Cl-].[Zn+2] [Zn^2+, ZnCl2]
increase in amount of APP recovered in all fractions ([1]; 50 μM Zn^2+): 48% | amount of APP recovered in all fractions ([1]; 50 μM Zn^2+ (1110 without)): 1644 reflectance units | reduction in amount of eluted protein ([1]; 50 μM Zn^2+, protein assay): 13% | Zn bound to APP, % of Bmax ([2]; at 1 minute): 30% | Zn bound to APP, % of Bmax ([2]; at 5 minutes): 30% | binding of Zn^2+ to APP at the lower pH, % of Bmax at pH 7.4 ([2]; pH 6.4): 45% | ^65Zn label competed off APP (of Bmax) ([2]; unlabelled metal ion at 20 μM): > 97% | effect on proportion of higher-affinity binding of serum-derived APP [3]: did not increase the proportion of higher-affinity binding | increase in APP recovered from the NaCl elution ([3]; 50 μm Zn^2+): 10% | increase in amount of protein recovered ([3]; 50 μm Zn^2+, protein assay): 12%
